Assay results: US5880258A (dated 1999)
*1 amine or outer side, *2 acyl side, *3 side chain or, on linkers, in order; H or OH if unused. Where a SMILES comes first, the peptide text is derived from it. Where no end group is shown, it is not given here. [ ]: non-standard residue; d: D form. sY = N[C@@H](Cc1ccc(OS(=O)(=O)O)cc1)C(=O)O; Asu = N[C@@H](CCCCCC(=O)O)C(=O)O; dAsu = N[C@H](CCCCCC(=O)O)C(=O)O; Suc = O=C(CCC(=O)[*:2])[*:1]; Leu(ol) = CC(C)C[C@H](N)CO; Ava = NCCCCC(=O)O; βAla = NCCC(=O)O

What was measured:
thrombin [1] = biological target: T1, thrombin (Homo sapiens, UniProt P00734); experiment: anti-thrombin activity; chromogenic assay (Chromozym TH hydrolysis, apparent dissociation constant Ki'); assay type: biochemical; parameters: 100 μl of human-thrombin prepared at 10 NIH units/ml in aforesaid buffer; conditions: for Ki: apparent dissociation constant, 350 pM human-thrombin, 100 μM Chromozym TH, 37° C.; for Potency: relative to hirudin HV-1 = 1
Description: Anti-thrombin activities were measured by measuring the degree of inhibition of thrombin's hydrolytic activity on synthetic substrate Chromozym TH (Tocylglycil-prolylarginine-4-nitroanilideacetate). This reaction was carried out as follows. […] Here, the molar concentration of aforementioned human-thrombin was determined by the method of active site titration [G. W. Jameson et al., Biochem. J., 131, p107-117 (1973)] using 4-methylunberifenyl-p-guanidinobenzoate as substrate. After the pre-incubation, Chromozym TH (product of Boehringer-Mannheim) was added to a final concentration of 100 μM, and released p-nitroanilide was measured at the wave length of 405 nm, and the initial velocity of the hydrolytic reactions were measured for each of the abovementioned hirudins at various concentrations. From this initial velocity of the hydrolytic reactions, the apparent dissociation constants Ki' were calculated by the method of S. R. Stone et al. [Biochemistry, 25, p4622-4628 (1986)].

thrombin [2] = biological target: T1, thrombin; experiment: anti-thrombin activity; clotting assay (coagulation time with fibrinogen as substrate); assay type: biochemical; parameters: 100 μl of human-thrombin prepared at 10 NIH units/ml in aforesaid buffer; conditions: for Potency: calculated using the definition that HV-1 (54-65) potency is 1; for IC50: concentration corresponding to 50 thrombin units, human-thrombin 10 NIH units/ml, human-fibrinogen 6 mg/ml, read-out: 50% Inhibition Concentration (converted)
Description: Measurement of anti-thrombin activity was done by looking at anti-coagulant activity as an index using fibrinogen as the substrate. That is, the compounds were dossolved in 200 μl of 0.1 mM Tris-HCl buffer (pH7.5) containing 0.1% polyethyleneglycol-6000, 100 μl of human-thrombin prepared at 10 NIH units/ml in aforesaid buffer, were added 200 μl of human-fibrinogen (Sigma) prepared at 6 mg/ml in aforesaid tris-hydrochloride buffer were added, and the coagulation time of the reaction mixtures were measured. For measuring of coagulation times, coagulation time analyzer (Amelung KC10A) was used. Obtained values were converted into units by using a previously prepared thrombin standard curve. Graphs were prepared by plotting the converted values on the vertical axis, and the concentrations of the compounds on the horizontal axis. In the graphs, the thrombin unit was defined as 100 at a compound concentration of 0. The concentration of compounds corresponding to 50 units were defined as 50% inhibitory concentrations of compounds.

Val--Val--Tyr--Thr--Asp--Cys--Thr--Glu--Ser--Gly--Gln--Asn--Leu--Cys--Leu--Cys--Glu--Gly--Ser--Asn--Val--Cys--Gly--Gln--Gly--Asn--Lys--Cys--Ile--Leu--Gly--Ser--Asp--Gly--Glu--Lys--Asn--Gln--Cys--Val--Thr--Gly--Glu--Gly--Thr--Pro--Lys--Pro--Gln--Ser--His--Asn--Asp--Gly--Asp--Phe--Glu--Glu--Ile--Pro--Tyr--Tyr(SO3 H)--Tyr--Leu--Gln [Sulfated form of hirudin HV-17 peak 3]
Ki (thrombin [1]): 0.0059 nM | Potency (thrombin [1]): 1.1

Val--Val--Tyr--Thr--Asp--Cys--Thr--Glu--Ser--Gly--Gln--Asn--Leu--Cys--Leu--Cys--Glu--Gly--Ser--Asn--Val--Cys--Gly--Gln--Gly--Asn--Lys--Cys--Ile--Leu--Gly--Ser--Asp--Gly--Glu--Lys--Asn--Gln--Cys--Val--Thr--Gly--Glu--Gly--Thr--Pro--Lys--Pro--Gln--Ser--His--Asn--Asp--Gly--Asp--Phe--Glu--Glu--Ile--Pro--Tyr--Tyr(SO3 H)--Tyr(SO3 H)--Leu--Gln [Sulfated form of hirudin HV-17 peak 1]
Ki (thrombin [1]): 0.0028 nM | Potency (thrombin [1]): 2.3

CC[C@H](C)[C@H](NC(=O)[C@@H]1CCCN1C(=O)[C@H](CCC(=O)O)NC(=O)[C@H](Cc1ccccc1)NC(=O)CCC(=O)O)C(=O)N1CCC[C@H]1C(=O)N[C@@H](CCC(=O)O)C(=O)N[C@@H](Cc1ccc(OS(=O)(=O)O)cc1)C(=O)N[C@@H](Cc1ccc(OS(=O)(=O)O)cc1)C(=O)NCCC(=O)O [Sulfated form of (K), Suc--Phe--Glu--Pro--Ile--Pro--Glu--Tyr(SO3 H)--Tyr(SO3 H)--NH(CH2)2 COOH] (Suc-FEPIPE[sY][sY][βAla]-OH)
Potency (thrombin [2]): 1.02 | IC50 (thrombin [2]): 4650 nM

CC[C@H](C)[C@H](NC(=O)[C@@H]1CCCN1C(=O)[C@H](CCC(=O)O)NC(=O)[C@H](Cc1ccccc1)NC(=O)CCC(=O)O)C(=O)N1CCC[C@H]1C(=O)N[C@@H](CCC(=O)O)C(=O)N[C@@H](Cc1ccc(O)cc1)C(=O)N[C@@H](Cc1ccc(O)cc1)C(=O)N[C@H](CO)CC(C)C [(P)] (Suc-FEPIPEYY[Leu(ol)])
IC50 (thrombin [2]): 82700 nM

CC[C@H](C)[C@H](NC(=O)[C@@H]1CCCN1C(=O)[C@H](CCC(=O)O)NC(=O)[C@H](Cc1ccccc1)NC(=O)[C@H](CC(=O)O)NC(=O)CNC(=O)CCC(=O)O)C(=O)N1CCC[C@H]1C(=O)N[C@@H](CCC(=O)O)C(=O)N[C@@H](Cc1ccc(OS(=O)(=O)O)cc1)C(=O)N[C@@H](Cc1ccc(OS(=O)(=O)O)cc1)C(=O)N[C@@H](CC(C)C)C(=O)N[C@@H](CCC(N)=O)C(N)=O [Sulfated form of (D), Suc--Gly--Asp--Phe--Glu--Pro--Ile--Pro--Glu--Tyr(SO3 H)--Tyr(SO3 H)--Leu--Gln--NH2] (Suc-GDFEPIPE[sY][sY]LQ-NH2)
Potency (thrombin [2]): 57.07 | IC50 (thrombin [2]): 66.9 nM

Val--Val--Tyr--Thr--Asp--Cys--Thr--Glu--Ser--Gly--Gln--Asn--Leu--Cys--Leu--Cys--Glu--Gly--Ser--Asn--Val--Cys--Gly--Gln--Gly--Asn--Lys--Cys--Ile--Leu--Gly--Ser--Asp--Gly--Glu--Lys--Asn--Gln--Cys--Val--Thr--Gly--Glu--Gly--Thr--Pro--Lys--Pro--Gln--Ser--His--Asn--Asp--Gly--Asp--Phe--Glu--Glu--Ile--Pro--Tyr--Tyr--Tyr(SO3 H)--Leu--Gln [Sulfated form of hirudin HV-17 peak 2]
Ki (thrombin [1]): 0.0043 nM | Potency (thrombin [1]): 1.5

CC[C@H](C)[C@H](NC(=O)[C@@H]1CCCN1C(=O)[C@H](CCC(=O)O)NC(=O)[C@H](Cc1ccccc1)NC(=O)CCC(=O)O)C(=O)N1CCC[C@H]1C(=O)N[C@@H](CCC(=O)O)C(=O)N[C@@H](Cc1ccc(O)cc1)C(=O)N[C@@H](Cc1ccc(O)cc1)C(=O)N[C@@H](CC(C)C)C(=O)N[C@H](CCCCCC(=O)OC)C(=O)OC [(U)] (Suc-FEPIPEYYL[dAsu](OMe)-OMe)
IC50 (thrombin [2]): 32300 nM

CC[C@H](C)[C@H](NC(=O)[C@H](CCC(=O)O)NC(=O)[C@H](CCC(=O)O)NC(=O)[C@H](Cc1ccccc1)NC(=O)[C@H](CC(=O)O)NC(=O)CN)C(=O)N1CCC[C@H]1C(=O)N[C@@H](CCC(=O)O)C(=O)N[C@@H](Cc1ccc(O)cc1)C(=O)N[C@@H](Cc1ccc(OS(=O)(=O)O)cc1)C(=O)N[C@@H](CC(C)C)C(=O)N[C@@H](CCC(N)=O)C(=O)O [Sulfated form of (A), Gly--Asp--Phe--Glu--Glu--Ile--Pro--Glu--Tyr--Tyr(SO3 H)--Leu--Gln] (H-GDFEEIPEY[sY]LQ-OH)
IC50 (thrombin [2]): 2150 nM

CC[C@H](C)[C@H](NC(=O)[C@@H]1CCCN1C(=O)[C@H](CCC(=O)O)NC(=O)[C@H](Cc1ccccc1)NC(=O)CCC(=O)O)C(=O)N1CCC[C@H]1C(=O)N[C@@H](CCC(=O)O)C(=O)N[C@@H](Cc1ccc(OS(=O)(=O)O)cc1)C(=O)N[C@@H](Cc1ccc(OS(=O)(=O)O)cc1)C(=O)NCCCCC(=O)O [Sulfated form of (L), Suc--Phe--Glu--Pro--Ile--Pro--Glu--Tyr(SO3 H)--Tyr(SO3 H)--NH(CH2)4 COOH] (Suc-FEPIPE[sY][sY][Ava]-OH)
IC50 (thrombin [2]): 2220 nM

GDFEEIPYYYLQ [(B)]
IC50 (thrombin [2]): 9000 nM

CC[C@H](C)[C@H](NC(=O)[C@@H]1CCCN1C(=O)[C@H](CCC(=O)O)NC(=O)[C@H](Cc1ccccc1)NC(=O)CCC(=O)O)C(=O)N1CCC[C@H]1C(=O)N[C@@H](CCC(=O)O)C(=O)N[C@@H](Cc1ccc(O)cc1)C(=O)N[C@@H](Cc1ccc(O)cc1)C(=O)NCCC(=O)O [(K)] (Suc-FEPIPEYY[βAla]-OH)
IC50 (thrombin [2]): 24600 nM

CC[C@H](C)[C@H](NC(=O)[C@@H]1CCCN1C(=O)[C@H](CCC(=O)O)NC(=O)[C@H](Cc1ccccc1)NC(=O)CCC(=O)O)C(=O)N1CCC[C@H]1C(=O)N[C@@H](CCC(=O)O)C(=O)N[C@@H](Cc1ccc(OS(=O)(=O)O)cc1)C(=O)N[C@@H](Cc1ccc(OS(=O)(=O)O)cc1)C(=O)N[C@@H](CC(C)C)C(=O)N[C@H](CCC(=O)O)C(=O)O [Sulfated form of (T), Suc--Phe--Glu--Pro--Ile--Pro--Glu--Tyr(SO3 H)--Tyr(SO3 H)--Leu--(D)Glu--OH] (Suc-FEPIPE[sY][sY]L[dE]-OH)
Potency (thrombin [2]): 8.32 | IC50 (thrombin [2]): 509 nM

CC[C@H](C)[C@H](NC(=O)[C@@H]1CCCN1C(=O)[C@H](CCC(=O)O)NC(=O)[C@H](Cc1ccccc1)NC(=O)CCC(=O)O)C(=O)N1CCC[C@H]1C(=O)N[C@@H](CCC(=O)O)C(=O)N[C@@H](Cc1ccc(O)cc1)C(=O)N[C@@H](Cc1ccc(O)cc1)C(=O)NCCCCC(=O)O [(L)] (Suc-FEPIPEYY[Ava]-OH)
IC50 (thrombin [2]): 12400 nM

CC[C@H](C)[C@H](NC(=O)[C@@H]1CCCN1C(=O)[C@H](CCC(=O)O)NC(=O)[C@H](Cc1ccccc1)NC(=O)CCC(=O)O)C(=O)N1CCC[C@H]1C(=O)N[C@@H](CCC(=O)O)C(=O)N[C@@H](Cc1ccc(OS(=O)(=O)O)cc1)C(=O)N[C@@H](Cc1ccc(OS(=O)(=O)O)cc1)C(=O)N[C@@H](CC(C)C)C(=O)N[C@@H](CCC(N)=O)C(=O)O [Sulfated form of (G), Suc--Phe--Glu--Pro--Ile--Pro--Glu--Tyr(SO3 H)--Tyr(SO3 H)--Leu--Gln--OH] (Suc-FEPIPE[sY][sY]LQ-OH)
Potency (thrombin [2]): 108.87 | IC50 (thrombin [2]): 38.9 nM

CC[C@H](C)[C@H](NC(=O)[C@@H]1CCCN1C(=O)[C@H](CCC(=O)O)NC(=O)[C@H](Cc1ccccc1)NC(=O)CCC(=O)O)C(=O)N1CCC[C@H]1C(=O)N[C@@H](CCC(=O)O)C(=O)N[C@@H](Cc1ccc(O)cc1)C(=O)N[C@@H](Cc1ccc(O)cc1)C(=O)N[C@@H](CCCCCC(=O)OC)C(=O)OC [(O)] (Suc-FEPIPEYY[Asu](OMe)-OMe)
IC50 (thrombin [2]): 26000 nM
